According to patent US20230406864A1, “7-AZOLE SUBSTITUTED 2-AMINOQUINAZOLINE INHIBITORS OF HPK1” (MERCK SHARP & DOHME LLC, priority 2020, published 2023):

molecular target: T1, Human HPK1, catalytic domain (Homo sapiens, UniProt Q92918); assay: HPK1-SLP76 TR-FRET assay; format: biochemical; conditions: HPK1 kinase domain 0.075 nM; full length SLP-76 10 nM; ATP 10 μM; 30 min preincubation; 60 min reaction; room temperature
T1 construct: purchased Cama (so in the source)
T1 sequence (Q92918 1-346): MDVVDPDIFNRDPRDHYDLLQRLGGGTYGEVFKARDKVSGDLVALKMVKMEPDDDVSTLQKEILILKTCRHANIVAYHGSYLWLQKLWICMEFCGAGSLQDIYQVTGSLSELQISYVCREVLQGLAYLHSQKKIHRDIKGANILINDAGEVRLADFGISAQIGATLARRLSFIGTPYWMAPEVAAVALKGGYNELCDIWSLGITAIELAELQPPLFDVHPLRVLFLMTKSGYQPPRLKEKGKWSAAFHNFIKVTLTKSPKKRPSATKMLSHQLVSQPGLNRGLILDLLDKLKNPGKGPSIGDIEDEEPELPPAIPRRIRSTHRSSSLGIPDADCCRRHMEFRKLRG

Compound | IC50
Cc1nn(C(C)C)cc1Nc1ncc2c(N)c(F)c(-c3cnc4c(c3C)NCCO4)cc2n1 [Example 2-33, 6-fluoro-7-(8-methyl-2,3-dihydro-1H-pyrido[2,3-b][1,4]oxazin-7-yl)-N~2~-[3-methyl-1-(propan-2-yl)-1H-pyrazol-4-yl]quinazoline-2,5-diamine] | 3.5 nM
Cc1c(-c2cc3nc(Nc4cnn5c4CCC5)ncc3c(N)c2F)cnc2c1NCCO2 [Example 2-35, N~2~-(5,6-dihydro-4H-pyrrolo[1,2-b]pyrazol-3-yl)-6-fluoro-7-(8-methyl-2,3-dihydro-1H-pyrido[2,3-b][1,4]oxazin-7-yl)quinazoline-2,5-diamine] | 0.051 nM
Cc1nsc(Nc2ncc3c(N)c(F)c(-c4cnc5c(c4C)NCCO5)cc3n2)c1Cl [Example 2-36, N~2~-(4-chloro-3-methyl-1,2-thiazol-5-yl)-6-fluoro-7-(8-methyl-2,3-dihydro-1H-pyrido[2,3-b][1,4]oxazin-7-yl)quinazoline-2,5-diamine] | 0.28 nM
CNC(=O)C(C)(C)n1cc(Nc2ncc3c(N)c(F)c(-c4cnc5c(c4C)NCCO5)cc3n2)cn1 [Example 2-41, 2-(4-{[5-amino-6-fluoro-7-(8-methyl-2,3-dihydro-1H-pyrido[2,3-b][1,4]oxazin-7-yl)quinazolin-2-yl]amino}-1H-pyrazol-1-yl)-N,2-dimethylpropanamide] | 0.84 nM
Cc1c(-c2cc3nc(Nc4cnn(CS(C)(=O)=O)c4)ncc3c(N)c2F)cnc2c1NCCO2 [Example 2-42, 6-fluoro-7-(8-methyl-2,3-dihydro-1H-pyrido[2,3-b][1,4]oxazin-7-yl)-N2-(1-((methylsulfonyl)methyl)-1H-pyrazol-4-y)quinazoline-2,5-diamine] | 0.13 nM
Cc1c(-c2cc3nc(Nc4cnn(C5CCN(C)CC5)c4)ncc3c(N)c2F)cnc2c1NCCO2 [Example 2-44, 6-fluoro-7-(8-methyl-2,3-dihydro-1H-pyrido[2,3-b][1,4]oxazin-7-yl)-N~2~-[1-(1-methylpiperidin-4-yl)-1H-pyrazol-4-yl]quinazoline-2,5-diamine] | 0.045 nM
Cc1c(-c2cc3nc(Nc4cnn(C5CC5)c4C)ncc3c(N)c2F)cnc2c1NCCO2 [Example 2-45, N~2~-(1-cyclopropyl-5-methyl-1H-pyrazol-4-yl)-6-fluoro-7-(8-methyl-2,3-dihydro-1H-pyrido[2,3-b][1,4]oxazin-7-yl)quinazoline-2,5-diamine] | 0.18 nM
Cc1c(-c2cc3nc(Nc4cnn(C56CC(C(C)(C)O)(C5)C6)c4)ncc3c(N)c2F)cnc2c1NCCO2 [Example 2-46, 2-[3-(4-{[5-amino-6-fluoro-7-(8-methyl-2,3-dihydro-1H-pyrido[2,3-b][1,4]oxazin-7-yl)quinazolin-2-yl]amino}-1H-pyrazol-1-yl)bicyclo[1.1.1]pentan-1-yl]propan-2-ol] | 0.051 nM

More lines, in order of falling IC50, values ahead:

IC50 | Compound
0.57 nM | CCn1ncc(Nc2ncc3c(N)c(F)c(-c4cnc5c(c4C)NCCO5)cc3n2)c1F [Example 2-38, N~2~-(1-ethyl-5-fluoro-1H-pyrazol-4-yl)-6-fluoro-7-(8-methyl-2,3-dihydro-1H-pyrido[2,3-b][1,4]oxazin-7-yl)quinazoline-2,5-diamine]
0.27 nM | CNC(=O)Cn1cc(Nc2ncc3c(N)c(F)c(-c4cnc5c(c4C)NCCO5)cc3n2)c(C)n1 [Example 2-40, 2-(4-{[5-amino-6-fluoro-7-(8-methyl-2,3-dihydro-1H-pyrido[2,3-b][1,4]oxazin-7-yl)quinazolin-2-yl]amino}-3-methyl-1H-pyrazol-1-yl)-N-methylacetamide]
0.177 nM | Cc1c(-c2cc3nc(Nc4cnn([C@H]5CCN(C)C5)c4)ncc3c(N)c2F)cnc2c1NCCO2 [Example 2-47, (S)-6-fluoro-7-(8-methyl-2,3-dihydro-1H-pyrido[2,3-b][1,4]oxazin-7-yl)-N2-(1-(1-methylpyrrolidin-3-yl)-1H-pyrazol-4-yl)quinazoline-2,5-diamine]
0.166 nM | Cc1c(-c2cc3nc(Nc4cnn([C@@H]5CCN(C)C5)c4)ncc3c(N)c2F)cnc2c1NCCO2 [Example 2-48, (R)-6-fluoro-7-(8-methyl-2,3-dihydro-1H-pyrido[2,3-b][1,4]oxazin-7-yl)-N2-(1-(1-methylpyrrolidin-3-yl)-1H-pyrazol-4-yl)quinazoline-2,5-diamine]
0.14 nM | Cc1c(-c2c(F)c(N)c3cnc(Nc4cnn(C5(C)CC5)c4)nc3c2Cl)cnc2c1NCCO2 [Example 2-43, (+ and −)-8-chloro-6-fluoro-N~2~-[1-(1-methylcyclopropyl)-1H-pyrazol-4-yl]-7-(8-methyl-2,3-dihydro-1H-pyrido[2,3-b][1,4]oxazin-7-yl)quinazoline-2,5-diamine]
0.071 nM | Cc1cnsc1Nc1ncc2c(N)c(F)c(-c3cnc4c(c3C)NCCO4)cc2n1 [Example 2-37, 6-fluoro-7-(8-methyl-2,3-dihydro-1H-pyrido[2,3-b][1,4]oxazin-7-yl)-N~2~-(4-methyl-1,2-thiazol-5-yl)quinazoline-2,5-diamine]
0.058 nM | Cc1nn(C)cc1Nc1ncc2c(N)c(F)c(-c3cnc4c(c3C)NCCO4)cc2n1 [Example 2-34, N~2~-(1,3-dimethyl-1H-pyrazol-4-yl)-6-fluoro-7-(8-methyl-2,3-dihydro-1H-pyrido[2,3-b][1,4]oxazin-7-yl)quinazoline-2,5-diamine]
0.054 nM | Cc1c(-c2cc3nc(Nc4cnn(CC(F)F)c4)ncc3c(N)c2F)cnc2c1NCCO2 [Example 2-32, N~2~-[1-(2,2-difluoroethyl)-1H-pyrazol-4-yl]-6-fluoro-7-(8-methyl-2,3-dihydro-1H-pyrido[2,3-b][1,4]oxazin-7-yl)quinazoline-2,5-diamine]
0.051 nM | Cc1c(-c2cc3nc(Nc4cnn(C5COC5)c4)ncc3c(N)c2F)cnc2c1NCCO2 [Example 2-39, 6-fluoro-7-(8-methyl-2,3-dihydro-1H-pyrido[2,3-b][1,4]oxazin-7-yl)-N~2~-[1-(oxetan-3-yl)-1H-pyrazol-4-yl]quinazoline-2,5-diamine]
